Results: patent US12296018B2, “Albumin binding peptide-drug (AlBiPeD) conjugates and methods of making and using same” (priority 2018, dated 2025)
Where “and” joins values, the source holds several entries; their conditions need not be identical. Equal values may be shown once.

Columns and labels:
[1] = system: BxPC-3 pancreatic cancer cells; experiment: In vitro cytotoxicity (MTS, 72 h) BxPC-3; assay type: cell-based, human; settings: 72 h incubation, Dox Equiv. concentration
Experimental: In vitro cytotoxicity C26 murine colon carcinoma cells and three different pancreatic cancer cell lines, BxPC-3, AsPC-1, and MIA PaCa-2, were used to study the in vitro cytotoxicity of ABD-DOX and Dox. Cells were cultured and grown as monolayers at 37° C. with C02 in a humidified incubator and were passaged at ˜80% confluency using 0.05% trypsin-EDTA (Invitrogen, Carlsbad, CA). C26, BxPC-3, AsPC-1, and MIA PaCa-2 cells were seeded in 96-well plates (5,000 cells/well) and incubated overnight. Three-fold serial dilutions of drug were then added to the wells in triplicate and also to control wells (media with no cells) to correct for the background Dox absorbance. After 72 h treatment, 20 μL MTS reagent was added to each well and was incubated for 3 h at 37° C., and the absorbance at 490 nm was measured using a Victor3 plate reader (Perkin Elmer, Boston, MA). Cell viability (%) was defined as the percentage of the absorbance of the drug-treated cells relative to buffer-treated cells and IC50 values were determined using logistic non-linear regression analysis with GraphPad Prism software. The IC50 was defined as the Dox Equiv. concentration of formulations resulting in 50% growth inhibition compared with a negative control, buffer-treated cells.

[2] = Intravenous pharmacokinetics in healthy BALB/c mice
Experimental: Pharmacokinetics and biodistribution Pharmacokinetics and biodistribution experiments were performed to study the concentration of ABD-Dox in blood and tissues over time following intravenous (i.v.) administration. For the pharmacokinetic study, ABD-Dox and Dox in PBS and AlDox in 10 mM sodium phosphate, 5% D-(+)-glucose, pH 5.8 were injected at 5 mg Dox Equiv. per kg of body weight (BW) into healthy BALB/c mice. 10 μL blood samples were collected at 40 s, 15 min and 30 min, and 2, 4, 8, 24, 48, 72 and 96 h post injection and were diluted into heparinized PBS (1 kUmL^−1), and centrifuged at 4,000 rcf, 10 min, 4° C. to collect the plasma. 10 μL of the plasma samples were then diluted in 490 μL of acidified isopropanol (0.075 M HCl, 10% water) and incubated overnight at 4° C. For the biodistribution study, ABD-Dox and Dox in PBS were injected at 5 mg Dox Equiv.kg^−1 BW into C26 tumor-bearing BALB/c mice. At 2 h, 24 h, and 72 h post-injection, mice were sacrificed and tumor, heart, lung, liver, spleen, kidney and muscle tissues were dissected, weighed, homogenized in acidified isopropanol using a Mini-Beadbeater (Biospec, Bartlesville, OK) with 2 mm diameter zirconia beads for 1-2 min, and were incubated overnight at 4° C. Following overnight incubation in acidified isopropanol, plasma and tissue samples were centrifuged at 16,000 rcf, 4° C. for 10 min and the supernatants were loaded onto black 96-well plates in duplicate and the Dox fluorescence was measured using on a Victor3 microplate reader (Perkin Elmer, Waltham, MA) with fluorescence excitation at 485 nm and emission at 590 nm. Tissues were also dissected from three untreated mice, processed in the same manner, serially diluted, and loaded on the plates to prepare a standard curve of fluorescence intensity versus the weight for each tissue from which the background tissue fluorescence was calculated and subtracted for each sample. Serial dilution of free Dox in acidified isopropanol was used as standard to quantify the Dox concentration as […] per liter of plasma (μM) and as the percent of the injected dose per gram (% ID g^−1) in the tumor and other tissues. Plasma concentrations of Dox Equiv. of ABD-Dox versus time were fit to a two-compartment model using SAAM II software (SAAM Institute, Seattle, WA) and the elimination half-life and the area-under-curve were computed. The tissue concentration of Dox. Equiv. of ABD-Dox and free Dox at each time point were compared in GraphPad Prism software (GraphPad, San Diego, CA) by Student's t-test with P<0.05 considered statistically significant.

[3] = Dose-escalation study, maximum tolerated dose; assay type: in vivo, BALB/c mice
Experimental: With these encouraging biodistribution results in hand, tumor regression in vivo by ABD-Dox was investigated. The maximum tolerated dose (MTD) of ABD-Dox was established in healthy mice. A range of doses of ABD-Dox were injected into healthy BALB/c mice, and body weight loss and mortality of the mice were monitored over a two-week period to assess systemic toxicity. […] Using these criteria, the MTD was determined to be 20 mg Dox Equiv.kg^−1 for ABD-Dox (FIG. 7) and 10 mgkg^−1 BW MTD of free Dox (FIG. 8).

[4] = system: MIA PaCa-2 pancreatic tumor xenografts; experiment: In vivo tumor regression, MIA PaCa-2 xenograft model; set-up: species or system nude BALB/c mice
Experimental: In vivo tumor regression For in vivo tumor implantation, C26 cells at 5×10^5 cells in 30 μL Minimum Essential Medium (MEM) (Invitrogen, Carlsbad, CA) and MIA PaCa-2 cells at 2×10^6 cells in 50 μL 10:90 v/v MEM: Matrigel matrix (Corning Inc, Corning, New York) were inoculated in the right flank of normal and athymic nude BALB/c mice, respectively. Tumor cells were allowed to grow until the tumor volume, calculated as π/6×length×width^2, reached 75-100 mm^3 for C26 tumors and 100-125 mm^3 for MIA PaCa-2 tumors. Tumor bearing mice were then treated with ABD-Dox at 10 and 20 mg Dox Equiv.kg^−1 BW, AlDox at 20 mg Dox Equiv.kg^−1 BW, and free Dox at 10 mgkg^−1 BW. Tumor volumes and body weights were monitored for 100 days after treatment and mice displaying excessive tumor volume (>[…]), body weight loss (>15%), or ill health were euthanized. Tumor growth and survival data were analyzed by GraphPad Prism software. Survival curves were generated with the Kaplan-Meier method and compared with the log-rank (Mantel-Cox) test. Tumor growth data were compared with a paired one-way ANOVA followed by Tukey-Kramer (Tukey's) post-hoc test. P<0.05 was considered as statistically significant.
For in vivo tumor regression studies, a single dose of ABD-Dox was injected via tail vein at 10 mg Dox Equiv.kg^−1 BW (MTD of free Dox) and 20 mg Dox Equiv.kg^−1 BW (MTD of ABD-Dox) in separate cohorts of BALB/c mice with s.c. C26 tumors or nude mice with s.c. MIA Paca-2 tumors. Free Dox was injected at its MTD of 10 mgkg-1 BW, and AlDox was injected at 20 mg Dox Equiv.kg^−1 BW, a dose that was reported to be safe in previous studies. All animals were injected when the tumors were 75-100 mm; in size for C26 tumors and 100-125 mm^3 for MIA PaCa-2 tumors.

ABD-Dox (GLAEAKVLANRELDKYGVSDYYKNLINNAKTVEGVKALIDEILAALPCGGCGGCGGCGG)
IC50 [1]: 8.9 µM | drug in plasma at late time point ([2]; 96 h after injection): detectable in plasma even 96 h after injection | Area under curve (total plasma exposure) ([2]; i.v., 5 mg Dox Equiv. per kg BW, plasma): 2263.6 ± 44.7 µM·h | Elimination half-life ([2]; i.v., 5 mg Dox Equiv. per kg BW, plasma, two-compartment model): 29.4 ± 0.8 h and 29.4 h | area under the curve, fold higher than AlDox ([2]; mouse, in vivo): 3 fold | maximum tolerated dose (MTD) ([3]; i.v., healthy BALB/c mice, two weeks, no mortality or body weight loss greater than 15%): 20 mg Dox Equiv.kg^−1 | maximum tolerated dose, fold higher than free drug ([3]; mouse, in vivo): 2 fold | survival compared with free Dox ([4]; 10 mg Dox Equiv.kg^−1 BW): No significant difference | survival compared with AlDox ([4]; 20 mg Dox Equiv.kg^−1 BW): No significant difference | survival compared with free Dox ([4]; 20 mg Dox Equiv.kg^−1 BW): significantly longer survival | tumor regression compared with AlDox ([4]; 20 mg Dox Equiv.kg^−1 BW): superior tumor regression efficacy | tumor-free period compared with AlDox ([4]; 20 mg Dox Equiv.kg^−1 BW, 100-day span): longer tumor-free period | mice showing tumor disappearance ([4]; by day 15 after treatment, 20 mg Dox Equiv.kg^−1 BW): all | tumor recurrence in tumor-eradicated mice ([4]; throughout the 100 day course of study, 20 mg Dox Equiv.kg^−1 BW): 25%
